Where no end group is shown, it is not given here.
Columns and labels:
Experiment in all cases: Uptake of SA-HRP::MBD peptide complexes
Format in all cases: cell-based, human
[1] = system: HS-578T; details: for SA-HRP uptake, Cyt.: cytoplasmic; for SA-HRP uptake, Nuc.: nuclear
Procedure: (§1) HEK293 kidney cell line and 54 tumor cell lines obtained from the National Cancer Institute and passaged in RPMI1640 cell culture medium supplemented with 10% fetal bovine serum and 10 uM FeCl2. Uptake of streptavidin-horseradish peroxidase (SA-HRP) conjugate and of various SA-HRP::MBD peptide complexes was determined as described (Singh et al. J Biol Chem. 279 (1):477-87 [2004]) using biotinylated MBD9 ([…]) (SEQ ID NO: 10) and MBD21 ([…]) (SEQ ID NO: 4) peptides and SA-HRP. Nuclear and cytoplasmic localization of these proteins was also determined in each case. […] In order to establish the underlying molecular mechanism for this variability, we cross-linked MBD21 peptide to the following cell surface markers at 4 degrees Celsius as previously described (Singh et al. J Biol Chem. 279 (1):477-87 [2004]): transferrin receptor 1, caveolin 1, PCNA, integrins alpha v, 2, 5 and 6, integrins beta 1, 3 and 5. […] Based on the strength of these correlations, it was possible to derive crude predictive formulae for MBD-mediated uptake based on the rate of cross-linking to surface markers. Such predictive formulas could form the basis for a diagnostic procedure to select appropriate targets for MBD-based therapies.

[2] = system: A498; details: for SA-HRP uptake, Cyt.: A498, cytoplasmic; for SA-HRP uptake, Nuc.: A498, nuclear
Procedure: as §1

[3] = system: HT-29; details: for SA-HRP uptake, Cyt.: HT-29, cytoplasmic; for SA-HRP uptake, Nuc.: HT-29, nuclear
Procedure: as §1

[4] = system: A2780; details: for SA-HRP uptake, Cyt.: A2780, cytoplasmic; for SA-HRP uptake, Nuc.: A2780, nuclear
Procedure: as §1

[5] = system: UO-31; details: for SA-HRP uptake, Cyt.: UO-31, cytoplasmic; for SA-HRP uptake, Nuc.: UO-31, nuclear
Procedure: as §1

[6] = system: OVCAR-3; details: for SA-HRP uptake, Cyt.: OVCAR-3, cytoplasmic; for SA-HRP uptake, Nuc.: OVCAR-3, nuclear
Procedure: as §1

[7] = system: SN12C; details: for SA-HRP uptake, Cyt.: cytoplasmic; for SA-HRP uptake, Nuc.: nuclear
Procedure: as §1

[8] = system: 786-O; details: for SA-HRP uptake, Cyt.: cytoplasmic; for SA-HRP uptake, Nuc.: nuclear
Procedure: as §1

[9] = system: SW-620; details: for SA-HRP uptake, Cyt.: SW-620, cytoplasmic; for SA-HRP uptake, Nuc.: SW-620, nuclear
Procedure: as §1

[10] = system: SHP-77; details: for SA-HRP uptake, Cyt.: SHP-77, cytoplasmic; for SA-HRP uptake, Nuc.: SHP-77, nuclear
Procedure: as §1

[11] = system: ACHN; details: for SA-HRP uptake, Cyt.: cytoplasmic; for SA-HRP uptake, Nuc.: nuclear
Procedure: as §1

[12] = system: LOVO; details: for SA-HRP uptake, Cyt.: cytoplasmic; for SA-HRP uptake, Nuc.: nuclear
Procedure: as §1

[13] = system: Lewis Lung; details: for SA-HRP uptake, Cyt.: cytoplasmic; for SA-HRP uptake, Nuc.: nuclear
Procedure: as §1

[14] = system: HCT-116; details: for SA-HRP uptake, Cyt.: HCT-116, cytoplasmic; for SA-HRP uptake, Nuc.: HCT-116, nuclear
Procedure: as §1

[15] = system: TK-10; details: for SA-HRP uptake, Cyt.: TK-10, cytoplasmic; for SA-HRP uptake, Nuc.: TK-10, nuclear
Procedure: as §1

[16] = system: HOP 92; details: for SA-HRP uptake, Cyt.: HOP 92, cytoplasmic; for SA-HRP uptake, Nuc.: HOP 92, nuclear
Procedure: as §1

[17] = system: NHI-H322M; details: for SA-HRP uptake, Cyt.: cytoplasmic; for SA-HRP uptake, Nuc.: nuclear
Procedure: as §1

[18] = system: OVCAR-4; details: for SA-HRP uptake, Cyt.: OVCAR-4, cytoplasmic; for SA-HRP uptake, Nuc.: OVCAR-4, nuclear
Procedure: as §1

[19] = system: MCF 7; details: for SA-HRP uptake, Cyt.: MCF 7, cytoplasmic; for SA-HRP uptake, Nuc.: MCF 7, nuclear
Procedure: as §1

[20] = system: NCI-H460; details: for SA-HRP uptake, Cyt.: NCI-H460, cytoplasmic; for SA-HRP uptake, Nuc.: NCI-H460, nuclear
Procedure: as §1

[21] = system: PC-3; details: for SA-HRP uptake, Cyt.: PC-3, cytoplasmic; for SA-HRP uptake, Nuc.: PC-3, nuclear
Procedure: as §1

[22] = system: HCC 2998; details: for SA-HRP uptake, Cyt.: HCC 2998, cytoplasmic; for SA-HRP uptake, Nuc.: HCC 2998, nuclear
Procedure: as §1

[23] = system: NCI-H23; details: for SA-HRP uptake, Cyt.: NCI-H23, cytoplasmic; for SA-HRP uptake, Nuc.: NCI-H23, nuclear
Procedure: as §1

[24] = system: A549; details: for SA-HRP uptake, Cyt.: A549, cytoplasmic; for SA-HRP uptake, Nuc.: A549, nuclear
Procedure: as §1

With KKGFYKKKKQCRPSKGRKRGFCWNGRK [MBD9] the “SA-HRP uptake, Cyt.” value [1] was 6.8 ng, the “SA-HRP uptake, Nuc.” value [1] was 2.3 ng and the “SA-HRP uptake, Cyt.” value [2] was 28.5 ng. The “SA-HRP uptake, Nuc.” value [2] was 12.4 ng, the “SA-HRP uptake, Cyt.” value [3] was 6.1 ng and the “SA-HRP uptake, Nuc.” value [3] was 7.7 ng. For the same sequence, the “SA-HRP uptake, Cyt.” value [4] was 20.7 ng, the “SA-HRP uptake, Nuc.” value [4] was 2.8 ng and the “SA-HRP uptake, Cyt.” value [5] was 4.6 ng. For the same sequence, the “SA-HRP uptake, Nuc.” value [5] was 1.0 ng, the “SA-HRP uptake, Cyt.” value [6] was 2.4 ng and the “SA-HRP uptake, Nuc.” value [6] was 4.6 ng. For the same sequence, the “SA-HRP uptake, Cyt.” value [7] was 10.6 ng, the “SA-HRP uptake, Nuc.” value [7] was 3.5 ng and the “SA-HRP uptake, Cyt.” value [8] was 2.9 ng. The “SA-HRP uptake, Nuc.” value [8] was 3.9 ng, the “SA-HRP uptake, Cyt.” value [9] was 3.2 ng and the “SA-HRP uptake, Nuc.” value [9] was 0.7 ng. For the same sequence, the “SA-HRP uptake, Cyt.” value [10] was 12.8 ng, the “SA-HRP uptake, Nuc.” value [10] was 5.9 ng and the “SA-HRP uptake, Cyt.” value [11] was 9.6 ng. For the same sequence, the “SA-HRP uptake, Nuc.” value [11] was 2.9 ng, the “SA-HRP uptake, Cyt.” value [12] was 12.6 ng and the “SA-HRP uptake, Nuc.” value [12] was 5.4 ng. For the same sequence, the “SA-HRP uptake, Cyt.” value [13] was 8.6 ng, the “SA-HRP uptake, Nuc.” value [13] was 7.2 ng and the “SA-HRP uptake, Cyt.” value [14] was 14.1 ng. The “SA-HRP uptake, Nuc.” value [14] was 4.4 ng, the “SA-HRP uptake, Cyt.” value [15] was 4.0 ng and the “SA-HRP uptake, Nuc.” value [15] was 1.3 ng. For the same sequence, the “SA-HRP uptake, Cyt.” value [16] was 2.5 ng, the “SA-HRP uptake, Nuc.” value [16] was 1.6 ng and the “SA-HRP uptake, Cyt.” value [17] was 5.2 ng. For the same sequence, the “SA-HRP uptake, Nuc.” value [17] was 5.0 ng, the “SA-HRP uptake, Cyt.” value [18] was 9.9 ng and the “SA-HRP uptake, Nuc.” value [18] was 2.7 ng. For the same sequence, the “SA-HRP uptake, Cyt.” value [19] was 26.7 ng, the “SA-HRP uptake, Nuc.” value [19] was 19.8 ng and the “SA-HRP uptake, Cyt.” value [20] was 30.3 ng. The “SA-HRP uptake, Nuc.” value [20] was 5.6 ng, the “SA-HRP uptake, Cyt.” value [21] was 23.2 ng and the “SA-HRP uptake, Nuc.” value [21] was 8.5 ng. For the same sequence, the “SA-HRP uptake, Cyt.” value [22] was 4.6 ng, the “SA-HRP uptake, Nuc.” value [22] was 3.7 ng and the “SA-HRP uptake, Cyt.” value [23] was 10.8 ng. For the same sequence, the “SA-HRP uptake, Nuc.” value [23] was 6.6 ng, the “SA-HRP uptake, Cyt.” value [24] was 9.6 ng and the “SA-HRP uptake, Nuc.” value [24] was 3.5 ng.
In the case of “KKGFYKKKQCRPSKGRKRGFCWAVDKYG (cysteine pairing not given here; also: biotinylated (position not given here), complexed with SA-HRP) [MBD21]”, the “SA-HRP uptake, Cyt.” value [1] is reported as 2.8 ng, the “SA-HRP uptake, Nuc.” value [1] is reported as 2.3 ng and the “SA-HRP uptake, Cyt.” value [2] is reported as 35.3 ng. For the same sequence, the “SA-HRP uptake, Nuc.” value [2] was 33.4 ng, the “SA-HRP uptake, Cyt.” value [3] was 3.5 ng and the “SA-HRP uptake, Nuc.” value [3] was 9.5 ng. For the same sequence, the “SA-HRP uptake, Cyt.” value [4] was 7.5 ng, the “SA-HRP uptake, Nuc.” value [4] was 1.0 ng and the “SA-HRP uptake, Cyt.” value [5] was 1.3 ng. The “SA-HRP uptake, Nuc.” value [5] was 3.3 ng, the “SA-HRP uptake, Cyt.” value [6] was under 0.04 ng and the “SA-HRP uptake, Nuc.” value [6] was 3.2 ng. For the same sequence, the “SA-HRP uptake, Cyt.” value [7] was 6.7 ng, the “SA-HRP uptake, Nuc.” value [7] was 6.4 ng and the “SA-HRP uptake, Cyt.” value [8] was 1.8 ng. For the same sequence, the “SA-HRP uptake, Nuc.” value [8] was 4.8 ng, the “SA-HRP uptake, Cyt.” value [9] was 6.3 ng and the “SA-HRP uptake, Nuc.” value [9] was 2.3 ng. The “SA-HRP uptake, Cyt.” value [10] was 6.6 ng, the “SA-HRP uptake, Nuc.” value [10] was 2.7 ng and the “SA-HRP uptake, Cyt.” value [11] was 8.0 ng. The “SA-HRP uptake, Nuc.” value [11] was 3.1 ng, the “SA-HRP uptake, Cyt.” value [12] was 8.7 ng and the “SA-HRP uptake, Nuc.” value [12] was 3.8 ng. For the same sequence, the “SA-HRP uptake, Cyt.” value [13] was 6.4 ng, the “SA-HRP uptake, Nuc.” value [13] was 3.4 ng and the “SA-HRP uptake, Cyt.” value [14] was 12.4 ng. For the same sequence, the “SA-HRP uptake, Nuc.” value [14] was 9.5 ng, the “SA-HRP uptake, Cyt.” value [15] was 5.0 ng and the “SA-HRP uptake, Nuc.” value [15] was 2.2 ng. The “SA-HRP uptake, Cyt.” value [16] was 1.5 ng, the “SA-HRP uptake, Nuc.” value [16] was 1.6 ng and the “SA-HRP uptake, Cyt.” value [17] was 6.0 ng. For the same sequence, the “SA-HRP uptake, Nuc.” value [17] was 8.3 ng, the “SA-HRP uptake, Cyt.” value [18] was 6.1 ng and the “SA-HRP uptake, Nuc.” value [18] was 1.3 ng. The “SA-HRP uptake, Cyt.” value [19] was 11.1 ng, the “SA-HRP uptake, Nuc.” value [19] was 5.8 ng and the “SA-HRP uptake, Cyt.” value [20] was 11.6 ng. For the same sequence, the “SA-HRP uptake, Nuc.” value [20] was 5.8 ng, the “SA-HRP uptake, Cyt.” value [21] was 44.2 ng and the “SA-HRP uptake, Nuc.” value [21] was 13.2 ng. For the same sequence, the “SA-HRP uptake, Cyt.” value [22] was 2.1 ng, the “SA-HRP uptake, Nuc.” value [22] was 2.4 ng and the “SA-HRP uptake, Cyt.” value [23] was 8.0 ng. For the same sequence, the “SA-HRP uptake, Nuc.” value [23] was 8.7 ng, the “SA-HRP uptake, Cyt.” value [24] was 4.4 ng and the “SA-HRP uptake, Nuc.” value [24] was 1.3 ng.

Source: US7618816B2, “Metal-binding therapeutic peptides” (Ontherix, Inc., priority 2005, dated 2009)
